The record followed here is ChEMBL document CHEMBL4376854, “Investigation of the Adrenergic and Opioid Binding Affinities, Metabolic Stability, Plasma Protein Binding Properties, and Functional Effects of Selected Indole-Based Kratom Alkaloids” (J Med Chem, 2020).

The structures appear in SMILES notation. pKi: −log10 of the molar value. Active and inactive are the calls of the source. No cut-off for these calls is given here.

The conditions of series [1]: human, microsomes, 1 µM.
The target in series [2] is T1, Delta-type opioid receptor (Homo sapiens, UniProt P41143). The series can be described thus: Antagonist activity at human recombinant delta opioid receptor expressed in rat Chem-1 (RBL) cells assessed as inhibition of DPDPE-induced intracellular calcium levels incubated at room temperature by fluorimetry. In kind it is functional, cell-based. On the technique in general: Calcium flux is commonly read through the fluorescence of an indicator in the cells.
T1 sequence (P41143 whole entry): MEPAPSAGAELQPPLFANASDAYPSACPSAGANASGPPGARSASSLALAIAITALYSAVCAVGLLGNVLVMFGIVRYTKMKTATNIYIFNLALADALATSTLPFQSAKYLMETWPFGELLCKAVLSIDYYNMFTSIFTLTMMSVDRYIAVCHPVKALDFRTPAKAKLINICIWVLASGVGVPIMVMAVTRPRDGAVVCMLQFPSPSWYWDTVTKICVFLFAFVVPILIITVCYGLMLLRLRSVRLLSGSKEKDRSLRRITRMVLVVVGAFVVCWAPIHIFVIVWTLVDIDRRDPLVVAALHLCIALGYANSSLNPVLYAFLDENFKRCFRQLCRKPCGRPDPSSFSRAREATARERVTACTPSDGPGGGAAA

In series [3] the target is T1, Delta-type opioid receptor. The experiment in a line: biochemical.
For series [4], the target named is T1, Delta-type opioid receptor. The series can be described thus: Displacement of [3H]DADLE from human recombinant delta opioid receptor expressed in rat Chem-1 (RBL) cell membranes at 10000 nM incubated for 60 mins relative to control. For orientation: Loss of bound radioactivity is the signal in a displacement assay; it reports binding, not function.
Series [5] relates to Rattus norvegicus. The experiment in a line: Antinociceptive activity in Sprague-Dawley rat dosed intravenously using cumulative dosing every 5 mins until rat maxed-out on hot plate by hot plate test relative to control. In kind it is functional. For orientation: Thermal pain tests record how soon the animal reacts.
For series [6], the system named is Rattus norvegicus. The experiment in a line: Antinociceptive activity in Sprague-Dawley rat dosed intravenously using cumulative dosing every 5 mins until rat maxed-out on hot plate co-treated with 0.1 mg/kg naltrexone by hot plate test. The series is classed as functional, organism-based.
A short description of series [7]: Protein binding in human plasma at 1 uM by equilibrium dialysis. The series is classed as ADME, cell-free. As to conditions: read-out: PPB (converted).
Series [8] concerns Rattus norvegicus. The experiment in a line: Antinociceptive activity in Sprague-Dawley rat dosed intravenously using cumulative dosing every 5 mins until rat maxed-out on hot plate by hot plate test. The series is classed as functional. The following applies: iv.
Series [9] is described as follows: Toxicity in Sprague-Dawley rat assessed as induction of hypothermia at 0.0032 to 10 mg/kg, iv. In kind it is organism-based. As to conditions: in vivo.
The conditions of series [10]: human, microsomes, 1 h.
For series [11], the target named is Kappa-type opioid receptor (Homo sapiens, UniProt P41145). The series can be described thus: Displacement of [3H]U69,593 from human recombinant kappa opioid receptor expressed in rat RBL cell membranes incubated for 60 mins.
Chain of Kappa-type opioid receptor (P41145 whole entry): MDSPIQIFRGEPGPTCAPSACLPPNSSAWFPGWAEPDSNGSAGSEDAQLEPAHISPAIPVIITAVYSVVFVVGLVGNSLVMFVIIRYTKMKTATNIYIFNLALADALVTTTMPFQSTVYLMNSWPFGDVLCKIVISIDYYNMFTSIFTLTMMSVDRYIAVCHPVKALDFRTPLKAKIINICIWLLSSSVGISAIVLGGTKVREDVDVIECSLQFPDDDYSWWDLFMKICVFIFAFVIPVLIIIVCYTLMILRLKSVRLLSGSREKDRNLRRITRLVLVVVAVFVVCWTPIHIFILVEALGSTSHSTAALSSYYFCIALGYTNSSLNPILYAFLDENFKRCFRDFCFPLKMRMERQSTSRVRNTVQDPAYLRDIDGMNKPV
A short description of a further series: in vitro. The following applies: human, plasma.
Series [12] concerns the target T1, Delta-type opioid receptor. The series can be described thus: Displacement of [3H]DADLE from human recombinant delta opioid receptor expressed in rat Chem-1 (RBL) cell membranes at 100 nM incubated for 60 mins relative to control.
The target in another series is Mu-type opioid receptor (Homo sapiens, UniProt P35372). The series can be described thus: biochemical.
Chain of Mu-type opioid receptor (P35372 whole entry): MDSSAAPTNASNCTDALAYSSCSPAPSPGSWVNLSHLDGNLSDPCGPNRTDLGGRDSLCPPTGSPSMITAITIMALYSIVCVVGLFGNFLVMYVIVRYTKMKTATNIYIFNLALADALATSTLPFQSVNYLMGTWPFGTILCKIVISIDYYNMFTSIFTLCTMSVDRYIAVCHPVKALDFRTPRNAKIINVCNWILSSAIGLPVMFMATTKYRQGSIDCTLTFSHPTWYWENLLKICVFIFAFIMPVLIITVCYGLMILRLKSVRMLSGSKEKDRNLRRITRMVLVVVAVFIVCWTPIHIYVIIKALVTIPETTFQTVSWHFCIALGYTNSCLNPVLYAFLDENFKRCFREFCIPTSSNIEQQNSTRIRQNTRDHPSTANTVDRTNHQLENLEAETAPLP

`CC[C@@H]1CN2CC[C@@]3(O)C(=Nc4cccc(OC)c43)[C@@H]2C[C@@H]1/C(=C\OC)C(=O)OC` had a Fu in series [1] of 0.852. Further, the Kb (usually the affinity of an antagonist, worked out from how it opposes an agonist) in series [2] came out at 0.55 µM. The pKi – broadly, the negative decadic logarithm of the Ki, by convention in mol/L – in series [3] was 6.63; in series [11], 7.13. The inhibition – broadly, the share of the control response that was lost under treatment – is 93.7% in series [4] and 19.6% in [12]. Moreover, in the series with Rattus norvegicus [5], the MPE is 100%. The outcome in the series on Rattus norvegicus [6] was inactive. Further, the fraction unbound at 1 µM (in series [7]; in the series “in vitro”) was 0.1 throughout. Moreover, the ED50 (in general, the midpoint of the dose-response relation) in the series with Rattus norvegicus [8] came to 1.91 mg/kg. In series [9], the Activity entry is on record as “Non-Toxic”. The molecule also returned a Kel in [10] of 0.0041 min⁻¹.
For `CC[C@@H]1CN2CCc3c([nH]c4cccc(O)c34)[C@@H]2C[C@@H]1/C(=C\OC)C(=O)OC`, the pKi on Mu-type opioid receptor is 6.98.
On to `CN1CC[C@]23c4c5ccc(O)c4O[C@H]2[C@@H](O)C=C[C@H]3[C@H]1C5` [MORPHINE], for which the outcome in the series with Rattus norvegicus [6] was inactive. For the same molecule, the 50% effect level in the series on Rattus norvegicus [8] (ED50) was put at a dose of 5.1 mg/kg.
